Measurements published in PMC7251097, “Aspartate/asparagine-β-hydroxylase: a high-throughput mass spectrometric assay for discovery of small molecule inhibitors” (Scientific Reports, 2020).
Where “and” joins values, the source holds several entries; their conditions need not be identical. Equal entries are not always repeated. Structures can show the parent of a compound that is named as a salt. Where two headings read alike, the source gives them in different places. Values belong to the molecule of their own block, whether it stands above or below them.

Target: T1, His6-AspH315–758 (human aspartate/asparagine-β-hydroxylase, AspH) (Homo sapiens, UniProt Q12797)
T1 construct: N-Terminally His6-tagged human AspH315–758 (His6-AspH315–758) was produced in E. coli BL21 (DE3) cells; made in house; host or cells: E. coli BL21 (DE3), pET-28a(+) vector
T1 sequence (Q12797 315-758): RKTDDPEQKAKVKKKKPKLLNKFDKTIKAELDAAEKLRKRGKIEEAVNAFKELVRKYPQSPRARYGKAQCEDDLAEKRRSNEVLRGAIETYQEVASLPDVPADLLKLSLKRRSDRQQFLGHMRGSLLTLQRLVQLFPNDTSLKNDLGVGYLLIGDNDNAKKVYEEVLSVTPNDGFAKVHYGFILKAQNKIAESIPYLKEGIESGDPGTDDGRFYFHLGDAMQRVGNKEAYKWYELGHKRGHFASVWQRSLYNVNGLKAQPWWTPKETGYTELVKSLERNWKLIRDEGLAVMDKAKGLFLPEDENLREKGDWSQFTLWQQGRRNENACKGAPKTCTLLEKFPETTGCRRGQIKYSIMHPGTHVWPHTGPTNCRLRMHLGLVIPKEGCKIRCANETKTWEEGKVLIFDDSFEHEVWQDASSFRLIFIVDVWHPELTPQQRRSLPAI
Test: SPE-MS AspH inhibition assay (LOPAC screen at fixed 20 μM and IC50 dose-response), hydroxylation of cyclic peptide hFX-CP101–119
Assay type: biochemical
Settings: for Plate 5 (% conversion) / Plate 5 (% inhibition): plate 5 (Pfitzer), test compounds at fixed 20 μM; for Plate 5 (% conversion): mean conversion DMSO 32.88; for IC50: 50 nM His6-AspH315–758, 1.0 μM hFX-CP101–119, 3 μM 2OG, 2 μM Fe(II), 50 mM HEPES pH 7.5, 20 °C, mean ± SD, n = 2 (2,4-PDCA n = 10), read-out: IC50

[1] = LOPAC Plate 4, compound at 20 uM, substrate conversion
[2] = LOPAC Plate 4, compound at 20 uM, read-out: % inhibition
[3] = LOPAC compound at 20uM, plate 2, conversion of substrate peptide
[4] = LOPAC compound at 20uM, plate 2, normalised to DMSO and 2,4-PDCA controls
[5] = LOPAC compound at fixed 20 uM, plate 1, normalised to DMSO and 2,4-PDCA controls
[6] = LOPAC compound at fixed 20 uM, substrate conversion, plate 1
[7] = LOPAC compound at 20uM, plate 3, conversion of substrate peptide
[8] = LOPAC Plate 4, compound at 20 uM

Molecule: O=P(O)(O)C(O)(Cn1ccnc1)P(=O)(O)O [Zoledronic acid monohydrate]
Plate 3 (% conversion): 37.14%

Molecule: C[C@@H]1O[C@@H](O[C@H]2C[C@@H](O)[C@]3(CO)[C@H]4[C@H](O)C[C@]5(C)[C@@H]([C@@H]6COC(=O)C6)CC[C@]5(O)[C@@H]4CC[C@]3(O)C2)[C@H](O)[C@H](O)[C@H]1O [Dihydroouabain]
Plate 2 (% conversion): 38.16%
Plate 2 (% inhibition) (20 µM): -6.59%

Molecule: CCCN1CCC[C@@H]2Cc3nc(N)ncc3C[C@H]21.Cl.Cl [Quinelorane dihydrochloride]
% conversion [1]: 33.91%

Molecule: N#Cc1ccc([C@H]2CCCC[C@H]2O)cc1C(F)(F)F [PF-998425]
Plate 5 (% conversion): 24.94%

Molecule: CC(C)(C)NC[C@H](O)COc1nsnc1N1CCOCC1.O=C(O)/C=C\C(=O)O [S(-)-Timolol maleate]
% conversion [1]: 29.54%

Molecule: COc1ccccc1N1CCN(CCCNc2c(C)c(=O)n(C)c(=O)n2C)CC1 [Urapidil, 5-Methyl-]
% conversion: 36.82%

Molecule: CN(CC[C@@H](Oc1ccc(C(F)(F)F)cc1)c1ccccc1)CC(=O)[O-].[Li+] [Org 24598 lithium salt]
Plate 1 (% conversion): 40.79%
Plate 1 (% inhibition): -14.64%

Molecule: CC(=O)SCC[N+](C)(C)C.[Cl-] [Acetylthiocholine chloride]
Plate 1 (% conversion): 37.52%
Plate 1 (% inhibition): -4.90%

Molecule: CC(C)COC(=O)OCN1C(=O)CN(CCN2CC(=O)N(COC(=O)OCC(C)C)C(=O)C2)CC1=O [Sobuzoxane]
% conversion: 68.13%

Molecule: NCCS(=O)(=O)O [Taurine]
% conversion [1]: 39.69%
inhibition at 20 µM [2]: -9.43%

Molecule: C=CC(N)CCC(=O)O (racemic) [(±)-gamma-Vinyl GABA]
% conversion [1]: 37.96%

Molecule: NC(N)=NOCC[C@H](N)C(=O)O.O=S(=O)(O)O [L-Canavanine sulfate]
Plate 1 (% conversion): 38.13%
Plate 1 (% inhibition): -6.73%

Molecule: S=C(Nc1ccccc1)Nc1nccs1 [1-Phenyl-3-(2-thiazolyl)-2-thiourea]
Plate 3 (% conversion): 40.98%

Molecule: CN(C)CCC=C1c2ccccc2C=Cc2ccccc21 [Cyclobenzaprine hydrochloride]
Plate 1 (% inhibition) [5]: -15.86%
Plate 1 (% conversion) [6]: 41.20%

Molecule: COc1ccc(C(=O)N2CCCC2=O)cc1 [Aniracetam]
Plate 1 (% conversion): 23.49%
Plate 1 (% inhibition): 36.86%

Molecule: CC(=O)NBr [N-Bromoacetamide]
Plate 1 (% inhibition) [5]: 71.66%
Plate 1 (% conversion) [6]: 11.81%

Molecule: Phenylbenzene-omega-phosphono-alpha-amino acid
% conversion: 25.21%

Molecule: CCCCN(CCCC)CC(O)c1cc(Cl)cc2c1-c1ccc(Cl)cc1/C2=C/c1ccc(Cl)cc1 (centres unmarked) [Lumefantrine]
Plate 1 (% inhibition) [5]: -1.89%
Plate 1 (% conversion) [6]: 36.51%

Molecule: CC(C)[C@H]1CN[C@H](C(=O)O)[C@H]1CC(=O)O [Dihydrokainic acid]
Plate 2 (% conversion): 34.38%
Plate 2 (% inhibition) (20 µM): 4.72%

Molecule: Cl.NO [Hydroxylamine hydrochloride]
Plate 2 (% conversion) [3]: 39.20%
Plate 2 (% inhibition) [4]: -9.70%

Molecule: CCCCCCCCCCC/C=C\C(C)(C)/C=C\CCCC(=O)O [7,7-Dimethyl-(5Z,8Z)-eicosadienoic acid]
Plate 2 (% conversion) [3]: 5.42%
Plate 2 (% inhibition) [4]: 91.20%

Molecule: CSC(=N)N.CSC(=N)N.O=S(=O)(O)O [S-Methylisothiourea hemisulfate]
Plate 3 (% conversion) [7]: 35.95%

Molecule: CC(C)(C)c1o[nH]c(=O)c1CC(N)C(=O)O (centres unmarked) [ATPA]
Plate 1 (% conversion): 36.48%
Plate 1 (% inhibition): -1.82%

Molecule: Cn1c(=O)c2[nH]cnc2n(C)c1=O [Theophylline]
% conversion: 39.26%
inhibition at 20 µM: -8.17%

Second part, the molecule after the results:

Plate 2 (% inhibition) (100 uM 2,4-PDCA control wells (columns 1, 2), plate 2): 100.30% and 100.62% and 100.70%
% inhibition (LOPAC Plate 3, 100 uM 2,4-PDCA control wells (columns 1, 2)): 99.57% and 99.80%
Plate 1 (% inhibition) (plate 1): 100.60% and 99.95% and 100.29%
Plate 5 (% conversion), 2,4-PDCA control (plate 5, 100 uM 2,4-PDCA controls, plate columns 1, 2): 2.34%
Molecule: O=C(O)c1ccnc(C(=O)O)c1 [2,4-pyridinedicarboxylic acid]

% conversion [1]: 37.25%
inhibition at 20 µM [2]: -2.28%
Molecule: CN(C)CCC(c1ccccc1)c1ccccn1 (centres unmarked) [Pheniramine maleate]

Plate 2 (% conversion) [3]: 39.35%
Plate 2 (% inhibition) [4]: -10.13%
Molecule: Cl.Fc1ccc(CN(C2=NCCN2)c2c(Cl)cccc2Cl)cc1 [IMID-4F hydrochloride]

Plate 1 (% inhibition) [5]: 2.94%
Plate 1 (% conversion) [6]: 34.88%
Molecule: Nc1ncnc2c1ncn2C1CCCC1 [9-cyclopentyladenine]

% conversion [1]: 38.87%
inhibition at 20 µM [2]: -7.04%
Molecule: COc1cc2ncnc(Nc3cccc(Cl)c3)c2cc1OC [Tyrphostin AG 1478]

Plate 1 (% inhibition) [5]: 8.76%
Plate 1 (% conversion) [6]: 32.93%
Molecule: N[C@@H](CS(=O)O)C(=O)O [L-Cysteinesulfinic Acid]

% conversion [1]: 37.21%
inhibition at 20 µM [2]: -2.16%
Molecule: CCN(CC)CCNC(=O)c1cc(S(C)(=O)=O)ccc1OC [Tiapride hydrochloride]

Plate 3 (% conversion) [7]: 4.28%
Molecule: O=C(Nc1cccc(C(=O)Nc2ccc(S(=O)(=O)O)c3cc(S(=O)(=O)O)cc(S(=O)(=O)O)c23)c1)Nc1cccc(C(=O)Nc2ccc(S(=O)(=O)O)c3cc(S(=O)(=O)O)cc(S(=O)(=O)O)c23)c1 [NF 023, reference compound]

Plate 1 (% inhibition) [5]: 4.97%
Plate 1 (% conversion) [6]: 34.20%
Molecule: O=c1ccc2c(OCCCCc3ccccc3)c3ccoc3cc2o1 [Psora-4]

Plate 3 (% conversion) [7]: 36.07%
Molecule: CC(CCc1ccccc1)NC(C)C(O)c1ccc(O)cc1 (centres unmarked) [Nylidrin hydrochloride]

% conversion [1]: 44.67%
inhibition at 20 µM [2]: -24%
Molecule: CCC(=O)c1ccc2c(c1)N(CCCN(C)C)c1ccccc1S2 [Propionylpromazine hydrochloride]

Plate 3 (% conversion) [7]: 41.94%
Molecule: CC1COc2c(N3CCN(C)CC3)c(F)cc3c(=O)c(C(=O)O)cn1c23 (centres unmarked) [Ofloxacin]

Plate 1 (% inhibition) [5]: -9.30%
Plate 1 (% conversion) [6]: 39.00%
Molecule: O=C1NC(=O)/C(=C/c2ccc(-c3ccc(F)cc3O)o2)S1 [AS-252424]

% inhibition [8]: -1.55%
% conversion [1]: 37.00%
Molecule: O=C(Nc1nc2ccccc2n1CCN1CCOCC1)c1cccc([N+](=O)[O-])c1 [IRAK-1/4 Inhibitor I]

% conversion [1]: 27.02%
Molecule: CC(=O)Oc1cc(C(F)(F)F)ccc1C(=O)O [Triflusal]

IC50: 4.39 ± 0.71 µM
Molecule: Cc1cc(C2CCCCC2)n(O)c(=O)c1 [Ciclopirox olamine, reference compound]

Plate 2 (% conversion) [3]: 36.89%
Plate 2 (% inhibition) [4]: -2.79%
Molecule: COc1cc2c(CCNC(C)=O)c[nH]c2cc1O [6-Hydroxymelatonin]

% conversion [1]: 37.50%
inhibition at 20 µM [2]: -3.02%
Molecule: C=C1C[C@@]23CC[C@H]4[C@@](C)(CCC[C@@]4(C)C(=O)O)[C@@H]2CC[C@]1(O)C3 [Steviol]

% conversion [1]: 32.70%
Molecule: O=C(Nc1ccccc1C(=O)NC1CCCCNC1=O)c1cc2ccccc2s1 (centres unmarked) [ANA-12]

Plate 2 (% conversion) [3]: 38.20%
inhibition at 20 µM (LOPAC compound at 20uM, plate 2, normalised to DMSO and 2,4-PDCA controls, read-out: Plate 2 (% inhibition)): -6.7%
Molecule: NNc1nncc2ccccc12 [Hydralazine hydrochloride]

Plate 1 (% inhibition) [5]: 48.94%
Plate 1 (% conversion) [6]: 19.44%
Molecule: O=C(O)c1cc(O)cc(C(=O)O)n1 [Chelidamic acid]

inhibition at 20 µM (AspH activity, fixed compound concentration 20 μM, initial LOPAC screen, 0.5%v/v DMSO, read-out: Inhibition at 20 µM [%]): 101%
% conversion [1]: 2.15%
inhibition at 20 µM [2]: 101%
Molecule: N#CC(C#N)=C(N)/C(C#N)=C/c1cc(O)c(O)c(O)c1 [Tyrphostin 51, reference compound]

IC50: 13.4 ± 1 µM
Molecule: O=c1c(-n2ccnn2)c[nH]n1-c1cc(N2CCOCC2)ncn1 [Molidustat, molidustat, reference compound]

Plate 5 (% inhibition): 30.36%
Plate 5 (% conversion): 25.98%
Molecule: C=Cc1cc(O)cc2nc(-c3ccc(O)c(F)c3)oc12 [ERB-041]

% conversion [1]: 31.14%
inhibition at 20 µM [2]: 15.6%
Molecule: CN(C)S(=O)(=O)c1ccc2c(c1)/C(=C/c1cc3c([nH]1)CCCC3)C(=O)N2 [SU 6656]

Plate 1 (% inhibition) [5]: -3.28%
Plate 1 (% conversion) [6]: 36.97%
Molecule: CC(C)NCC(O)COc1ccc(CCOCC2CC2)cc1 (centres unmarked) [Betaxolol hydrochloride]

% inhibition [8]: -0.23%
% conversion [1]: 36.55%
Molecule: O=c1ccn([C@@H]2O[C@H](COP(=O)([O-])OP(=O)([O-])O)[C@@H](O)[C@H]2O)c(=O)[nH]1.[Na+].[Na+] [Uridine 5-diphosphate sodium]

Plate 1 (% inhibition) [5]: -17.07%
Plate 1 (% conversion) [6]: 41.61%
Molecule: CCc1ccc2c(-c3cccc(Cl)c3)nc(=O)n(CC)c2n1 [YM 976]

Plate 5 (% inhibition): -7.77%
Plate 5 (% conversion): 38.96%
Molecule: CNC(=O)c1ccccc1Sc1ccc2c(/C=C/c3ccccn3)n[nH]c2c1 [Axitinib]
